# In patent publication US20250281392A1, “TOPICAL DELIVERY OF EPINEPHRINE AND PRODRUG COMPOSITIONS” (Aquestive Therapeutics, Inc., priority 2024, published 2025):
# Structures can show the parent of a compound that is named as a salt.
# How the values were obtained:
# [1] = Stability of topical gel formulations (assay and degradant generation at 25° C./60% RH and 40° C./75% RH); assay type: physicochemical; details: Formulation 1, 5% w/w API; accelerated conditions 40° C./75% RH
# Protocol: An exemplary formulation is provided below.
# Multiple dipivefrin gel formulations were evaluated. Formulations 1-3: API loading ranging from 2.5-10% w/w. Formulation 4: Reduced ethyl alcohol (50%) of original loading. Formulation 5: Reduced diethylene glycol monoethyl ether (50%) of original loading. Formulation 6: Reduced propylene glycol (50%) of original loading.
# The stability of the topical formulation was tested in two assays. Formulation 1 was evaluated with API loading of 5% w/w. Assay trends are directed downward under accelerated conditions (40° C./75% RH)
# Stability trends for a claimed topical formulation (AQEP-09) was evaluated by measuring degradant generation. Formulation 1 was tested with API loading of 5% (% w/w).
# The following formulations are exemplary.
# NK cells = assay: NK activation assay, CD25+CD69+ NK cells by flow cytometry; assay type: cell-based, human; details: for % inactivation relative to vehicle: human NK % CD25+CD69+ cells; for suppression of activation of NK cells, Epinephrine and Dipivefrin combined for analysis: exceeding IC50 at 70, 140 and 280 nM
# Protocol: IC50 is a measurement of how much of a drug is needed to inhibit a biological process by half.
# Peripheral blood mononuclear cells (PBMC) were isolated over a density gradient from six donor buffy coats and CD56+NK were separated using magnetic selection. Purity of sorted NIK cells was assessed by flow cytometry using CD56 as a marker of NK cells.
# Following magnetic isolation, NK cells were seeded at 5×10^5 NK cells per well in a 48 well plate alongside NK activation beads (prepared as per manufacturer's protocol) at a 1:1 bead to cell ratio, IL-2 (final concentration 500 IU/ml) and either prodrug/epinephrine at 5 different doses (see section 3.6 below for further details), cortisol/dexamethasone (positive controls) or vehicle (media only). NK cells were cultured with the NK activation beads for two days at 37° C. in the presence of 5% CO2. After two days, supernatants were collected from each condition for future TR-FRET analysis (AQV-24-001_AM-1 only, see below) and the remaining cells from each condition were assessed for expression of surface markers CD25, CD69 and for cell viability using eBioscience™ Fixable Viability Dye. Samples were then treated with eBioscience Intracellular Fixation & Permeabilization Buffer Set to allow staining of intracellular granzyme B. Marker expression was determined by flow cytometry and appropriate “Fluorescence-Minus-One controls” controls were used. Flow cytometry data was analysed using FlowJo analysis software and data was graphed using Graph Pad Prism.
# The study was performed in: 3 donors Each experimental condition was tested in: singlicate. For Flow cytometry, viability was measured and cells were phenotyped for NK cell activation (CD25, CD69, granzyme B). Raw and analysed data are provided.
# Each experimental condition was tested in: singlicate. For Flow cytometry, viability was measured and cells were phenotyped for NK cell activation (CD25, CD69, granzyme B). Raw and analysed data are provided. Supernatants were harvested in triplicate per condition and stored until further analysis of IFNγ content by TR-FRET. Data was analysed and graphed. Raw and analysed data are provided. […]
# [2] = Ex vivo permeation and flux of epinephrine prodrug topical gels through porcine ear tissue; assay type: in vitro ADME
# Protocol: Both in vitro and ex vivo permeation was measured for the following formulation. […]
# Exemplary formulations were evaluated including Formulations 1-3, with API loading from 2.5-10% w/w.
# (§1) The claimed topical compositions were tested for permeation using both porcine ear and buccal tissue.
# (§2) The tested tissues were Porcine Ear vs. Buccal Tissue through 24 hours.
# IL-1b, IL-10 = details: cited from earlier work
# [3] = set-up: species or system Sinclair Nanopigs; details: in vivo
# Protocol: A study was conducted to evaluate the systemic pharmacokinetic characteristics of Dipivefrin Topical Gel when administered once by topical application to intact, abraded, and wounded skin of Sinclair Nanopigs™. The study design was as follows. Animals were food fasted for at least 8 hours. Animals were monitored until fully recovered. Anesthesia procedures were documented and retained in the study data. The dose formulations were administered to appropriate animals by topical application on the dorsal surface (Dose Site #1) once on Day 1. The dose site was and/or shaved and marked at least one day prior to Day 1. At least the four corners of the dose sites will be marked with indelible ink based on the appropriate dose area. At least the four corners of the tape stripping area were marked with indelible ink for Group 2 and 3 animals. The site for Group 2 and 3 animals was gently abraded via tape stripping (conducted 50 times). All animals will have a uniform topical application using a gloved hand and/or spatula to rub the entire dose amount throughout the total dose area (for 1 minute). Topical application to the dose area for Group 4 animals will include application of the dose amount over the created wounds. If an animal is observed to have test material remaining following the application time, the observation will be documented. Dose formulations will be allowed to equilibrate at ambient temperature for at least 15 minutes prior to and continuously throughout dose administration Prior to dermal (topical) application on Day 1, the dose site for Group 1 to 3 animals were wiped clean with water-moistened gauze or paper towels then wiped dry with dry gauze or paper towels. Following washing and drying, […]. On Day 1, Group 4 animals: The animal backs were prepared for wound creation by performing a surgical scrub. Two (2) wounds were created on the dorsal surface of each Group 4 animal within a 7×7 cm area using an 8 mm punch biopsy. Steps were taken to ensure the area designated for wound creation is within the total dose area (8×8 cm). […]
# [4] = Ex vivo permeation of ondansetron formulation through dermatomed porcine ear (tissue thickness / tissue type); assay type: in vitro ADME
# Protocol: Referring to FIG. 2A (through 6 hour timepoint) and FIG. 2B (through 24 hour timepoint), dermatome sectioning of the porcine ear was conducted to sample membranes of varying thickness that both capture the complete epidermis and a varying thickness of the dermis. Dermatome sectioning completed at 200 μm, 300 μm, and 400 μm to provide membranes of a varying total thickness.
# As porcine tissue varies with regard to stratum corneum and epidermal thickness as a function of sampling location, multiple sampling locations have been selected for comparison. Dermatome sectioning of multiple porcine tissue samples at a constant thickness. Dermatome sectioning completed at 400 μm. Tissue types evaluated included porcine ear, shoulder, rump, and belly locations
# Referring to FIG. 3A (through 400 minutes) and FIG. 3B (through 1500 minutes), the average amount of ondansetron permeated (in ug) is measured as a function of time. The permeation is measured through varying intact porcine ear tissue types at constant thickness (400 um total thickness). […] Given the comparably low standard deviation and the lack of ondansetron detected in the receiver media at t=0 minutes compared to other tissue types, this tissue type has been selected for continued ex-vivo permeation method development.
# [5] = human, in vivo
# Protocol: A two-part clinical study was conducted for alopecia areata (AA) patients. AA is an autoimmune disease leading to hair loss on the scalp, face, and in more severe cases, other body areas. The mechanisms leading to AA are multifactorial, including an autoimmune response that results in the loss of hair follicle immune privilege. The patient will be given treatment based on disease severity (>50% involvement—JAK inhibitors; <50% involvement—corticosteroids).
# In Part 1, single ascending doses of a single formulation of AQST-108 were given. […] The 1.0% AQST-108 strength was down-selected to Part 2.
# In Part 2, a single dose of 1 of 3 formulations of 1.0% of AQST-108 was given.
# [6] = Non-clinical pharmacokinetic study of 2.5% topical gel in minipigs; assay type: in vivo
# Protocol: A non-clinical pharmacokinetic study was also conducted in minipigs. In this study, a 2.5% topical gel was applied at 30 mg/cm2 in 7, 10 and 12% body surface area (BSA) coverage respectively, and data was collected over 6 hours.
# [7] = In vitro permeation and flux of dipivefrin topical gel through CelluSep; assay type: in vitro ADME; details: 5.0% dipivefrin (w/w) topical gel
# Protocol: Both in vitro and ex vivo permeation was measured for the following formulation. […] Rapid release from the topical gel matrix was observed. Referring to FIG. 4A, the amount permeated (in ug) was measured as a function of time (in minutes). […] The flux (ug/cm^2*min) was measured as a function of time (minutes).
# [8] = Ex vivo permeation and flux of dipivefrin topical gel through buccal tissue; assay type: in vitro ADME, porcine; details: through 24 hours
# Protocol: as §1, §2
# [9] = male, Wistar Han, rat, in vivo
# Protocol: A study was conducted to evaluate the pharmacokinetics of the claimed composition in a rat model. The purpose of this study was to enable selection of dosing regimen to be used on Passive Cutaneous Anaphylaxis (PCA) model in mammalian subjects. In this study, 15 male rats were studied to model the effects of the claimed composition on passive cutaneous anaphylaxis with a topical route of exposure. […] The Wistar Han rat was chosen as the animal model for this study as it is an appropriate model to study the effects of drug candidates on passive cutaneous anaphylaxis, based on available literature.
# In this study, the pharmaceutical composition was applied on the dorsal side of both ears for groups 2-5 and only on the left ear of group 1 using a gloved finger until absorbed. The topical gel was applied as an even layer with no rubbing required.
# The dark gray bar represents concentration in ng/g after 30 minutes of exposure for both 1% (low dose) and 2.5% (high dose) compositions. The light gray bar represents concentration in ng/g after 60 minutes of exposure for both 1% (low dose) and 2.5% (high dose) compositions.
# TNFα, IL-10 = details: cited from earlier work
# Granzyme B = details: donors 4-6, from 100 μg/ml, versus vehicle control
# Protocol: NK cells were cultured with the NK activation beads for two days at 37° C. in the presence of 5% CO2. […] Samples were then treated with eBioscience Intracellular Fixation & Permeabilization Buffer Set to allow staining of intracellular granzyme B. Marker expression was determined by flow cytometry and appropriate “Fluorescence-Minus-One controls” controls were used. Flow cytometry data was analysed using FlowJo analysis software and data was graphed using Graph Pad Prism.
# CD56+ cells were isolated from three donor buffy coats by magnetic separation. […] Next, the effect of compound addition at different timepoints and doses, following either optimal or suboptimal NK activation was determined by measuring expression of the activation markers CD25, CD69 and Granzyme B on NK cells. […] Treatment was administered at 0, 6, 24 and 30 hours. The controls were 200 nM Cortisol and 500 nM Deuruxolitinib (Jak inhibitor).
# [10] = tissue thickness 200 μm, donor cell empty
# [11] = tissue thickness 400 μm, donor cell filled
compound,measurement,setting,value
"CNCC(O)c1ccc(OC(=O)C(C)C)c(OC(=O)C(C)C)c1 (stereo not drawn) [AQEP-09, Dibutepinephrine]","degradant formation trends (epinephrine, PD-15, RRT 1.80)",[1],directed upward
C[C@]12CCC(=O)C=C1CC[C@@H]1[C@@H]2[C@@H](O)C[C@@]2(C)[C@H]1CC[C@]2(O)C(=O)CO [Cortisol],% inactivation relative to vehicle,NK cells; 200 nM,39%
C[C@@H]1C[C@H]2[C@@H]3CCC4=CC(=O)C=C[C@]4(C)[C@@]3(F)[C@@H](O)C[C@]2(C)[C@@]1(O)C(=O)CO [Dexamethasone],% inactivation relative to vehicle,NK cells; 200 nM,22%
same,% inactivation relative to vehicle,NK cells; 1 μM,19%
CNCC(O)c1ccc(OC(=O)C(C)(C)C)c(OC(=O)C(C)(C)C)c1 (stereo not drawn) [Dipivefrin HCl],ex vivo permeation through porcine ear tissue,"[2]; topical gel containing 0.5% or 5.0% (w/w) dipivefrin HCl, 400 μm tissue",Significant permeation
CNC[C@H](O)c1ccc(O)c(O)c1 [Epinephrine],serum concentrations of IL-10,"IL-1b, IL-10; humans",increases serum concentrations
same,serum concentrations of IL-1b,"IL-1b, IL-10; septic patients following treatment",decreased serum concentrations of IL-1b
same,CD25+CD69+ NK cells compared to vehicle,"NK cells; 5 doses, 6 donors (donor 1 removed)",consistent reduction
same,% inactivation relative to vehicle,NK cells; 500 nM,65%
same,% inactivation relative to vehicle,NK cells; 1000 nM,61%
same,% inactivation relative to vehicle,NK cells; 2500 nM,51%
same,"suppression of activation of NK cells, Epinephrine and Dipivefrin combined for analysis",NK cells; range of concentrations,effective suppression
same,"wounded to intact skin ratio for Cmax, epinephrine plasma","[3]; Sinclair Nanopig, pig, topical or ocular",3.90
same,"PK parameters in plasma, intact skin versus abraded skin",[3],no significant difference
Cc1nccn1CC1CCc2c(c3ccccc3n2C)C1=O (stereo not drawn) [Ondansetron],"Amount Ondansetron Permeated, 6 hours",[4]; [10],21.2 (±2.5) μg
same,"Amount Ondansetron Permeated, 24 hours",[4]; [10],542.4 (±74.3) μg
same,"Amount Ondansetron Permeated, 6 hours",[4]; [11],5.7 (±3.9) μg
same,"Amount Ondansetron Permeated, 24 hours",[4]; [11],43.8 (±19.4) μg
CNC[C@H](O)c1ccc(OC(=O)C(C)(C)C)c(OC(=O)C(C)(C)C)c1 [dipivefrin],AQST-108 plasma concentrations,[5],No AQST-108 plasma concentrations
same,serious adverse events (SAE) or topical adverse events (AE),[5],No serious adverse events
same,systemic epinephrine concentrations,[5],within normal physiologic range
same,permeation as a function of API loading,"[2]; topical gel, 2.5% to 10% API loading, 24 hours",Dose proportional increases in permeation
same,duration of high exposure in dermis and epidermis,"[6]; 30 mg/cm2, 7, 10 and 12% BSA",more than 6 hours
same,systemic exposure,[6]; high body surface area coverage,no systemic exposure
same,in vitro release from the topical gel matrix (permeation and flux),[7],Rapid release
same,% inactivation relative to vehicle,NK cells; 500 nM,67%
same,% inactivation relative to vehicle,NK cells; 1000 nM,68%
same,% inactivation relative to vehicle,NK cells; 2500 nM,66%
same,"suppression of activation of NK cells, Epinephrine and Dipivefrin combined for analysis",NK cells; range of concentrations,effective suppression
same,modulation of NK cell activity,"NK cells; range of concentrations, exceeding IC50 at 140 and 280 nM",effectively deactivated NK cells
same,permeation through buccal tissue versus porcine ear,[8],reduced dipivefrin permeation
same,"PK parameters in plasma, intact skin versus abraded skin",[3],no significant difference
same,duration of epinephrine exposure,[9],> 1 h
NC[C@H](O)c1ccc(O)c(O)c1 [norepinephrine],IL-10 secretion,"TNFα, IL-10",inducing rapid IL-10 secretion
same,TNFα,"TNFα, IL-10",potently suppresses
dipivefrin,reduction of NK cell activation as compared to control,"NK cells; doses up to 5 ng/mL, comparable to 20 nM Cortisol",about 12%
same,reduction in CD25+CD69+ NK cells compared to vehicle control,"NK cells; higher doses, donors 4-6",5-12%
same,reduction in CD25+CD69+ NK cells compared to vehicle control,"NK cells; lower doses, donors 2-3",7-12%
same,Median Fluorescence Intensity (MFI) of Granzyme B,Granzyme B,decreasing to some extent
